From ChEMBL document CHEMBL1149766, “Quantitative structure activity relationship studies on thiourea analogues as influenza virus neuraminidase inhibitors” (Eur J Med Chem, 2008)

molecular target: Neuraminidase (Influenza A virus, UniProt B4URF0); test: Inhibition of Influenza A virus neuraminidase activity
Sequence (B4URF0 whole entry): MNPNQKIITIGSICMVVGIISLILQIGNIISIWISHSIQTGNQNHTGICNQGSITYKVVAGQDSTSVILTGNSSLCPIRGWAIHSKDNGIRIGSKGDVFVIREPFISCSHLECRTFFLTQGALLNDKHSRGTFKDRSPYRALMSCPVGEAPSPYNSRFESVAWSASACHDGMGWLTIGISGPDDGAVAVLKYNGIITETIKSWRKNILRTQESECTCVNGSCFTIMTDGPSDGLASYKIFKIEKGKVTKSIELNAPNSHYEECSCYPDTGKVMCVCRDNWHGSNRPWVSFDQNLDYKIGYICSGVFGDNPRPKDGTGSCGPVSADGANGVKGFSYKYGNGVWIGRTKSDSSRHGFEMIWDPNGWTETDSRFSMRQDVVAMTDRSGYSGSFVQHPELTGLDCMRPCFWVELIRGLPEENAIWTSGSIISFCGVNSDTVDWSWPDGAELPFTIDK

SMILES	IC50 [nM]
COc1cc(Cl)nc(NC(=S)NC(=O)c2ccc(Cl)nc2)n1	> 20000
CC(C)(C)NC(=O)NC(=S)NC(=O)c1c(F)cccc1F	1430
Cc1cc(O)nc(NC(=S)NC(=O)c2ccc(-c3ccc([N+](=O)[O-])cc3)o2)n1	360
COc1cc(C)nc(NC(=S)NC(=O)c2ccc(Cl)nc2)n1	> 20000
COc1cc(C)nc(NC(=S)NC(=O)c2ccc(-c3ccccc3Cl)o2)n1	> 20000
COc1cc(OC)nc(NC(=S)NC(=O)c2ccc(-c3ccccc3Cl)o2)n1	1770
CC(C)(C)NC(=O)NC(=S)NC(=O)c1ccccc1	1790
COc1cc(C)nc(NC(=S)NC(=O)c2ccc(-c3ccc([N+](=O)[O-])cc3)o2)n1	1220
CCOc1cc(Cl)nc(NC(=S)NC(=O)c2ccc(-c3ccccc3Cl)o2)n1	> 20000
CCOc1cc(OCC)nc(NC(=S)NC(=O)c2cccnc2Cl)n1	> 20000
CC(C)(C)NC(=O)NC(=S)NC(=O)c1ccc(-c2ccc([N+](=O)[O-])cc2)o1	1300
COc1cc(OC)nc(NC(=S)NC(=O)c2cccnc2)n1	> 20000
COc1cc(Cl)nc(NC(=S)NC(=O)c2cccnc2Cl)n1	2590
Cc1cc(O)nc(NC(=S)NC(=O)c2ccc(Cl)nc2)n1	8580
CC(C)[C@H](C(=O)NC(=S)NC(=O)NC(C)(C)C)c1ccc(Cl)cc1	1350
CCOc1cc(C)nc(NC(=S)NC(=O)c2ccc(-c3ccc([N+](=O)[O-])cc3)o2)n1	2300
CCOc1cc(C)nc(NC(=S)NC(=O)c2ccc(-c3ccccc3Cl)o2)n1	1650
CC(C)(C)NC(=O)NC(=S)NC(=O)COc1ccc(Cl)cc1Cl	1670
Cc1cc(C)nc(NC(=S)NC(=O)c2cccnc2Cl)n1	7190
CC(C)(C)NC(=O)NC(=S)NC(=O)c1ccc(-c2ccccc2Cl)o1	1420

SMILES	IC50 [nM]
COc1cc(OC)nc(NC(=S)NC(=O)c2cnc(Cl)c(Cl)c2)n1	18500
O=C(NC(=S)Nc1nc(Cl)cc(Cl)n1)c1ccc(-c2ccccc2Cl)o1	14500
CCOc1cc(OCC)nc(NC(=S)NC(=O)c2ccc(-c3ccc([N+](=O)[O-])cc3)o2)n1	> 20000
CCOc1cc(OCC)nc(NC(=S)NC(=O)c2ccc(Cl)nc2)n1	> 20000
Cc1cc(O)nc(NC(=S)NC(=O)c2ccc(-c3ccccc3Cl)o2)n1	320
COC(=O)NC(=S)NC(=O)NC(C)(C)C	1830
CCOc1cc(OCC)nc(NC(=S)NC(=O)c2ccc(-c3ccccc3Cl)o2)n1	80
CCOc1cc(Cl)nc(NC(=S)NC(=O)c2cccnc2Cl)n1	> 20000
COc1cc(Cl)nc(NC(=S)NC(=O)c2ccc(-c3ccccc3Cl)o2)n1	1290
CC(C)(C)NC(=O)NC(=S)NC(=O)[C@H]1[C@H](C=C(Cl)Cl)C1(C)C	260
CC(C)C(C(=O)NC(=S)Nc1nc(Cl)cc(Cl)n1)c1ccc(Cl)cc1 (stereo not given)	> 20000
COc1cc(OC)nc(NC(=S)NC(=O)C2C(/C=C(\Cl)C(F)(F)F)C2(C)C)n1 (stereo not given)	970
CC(C)(C)NC(=O)NC(=S)NC(=O)[C@@H]1[C@H](/C=C(\Cl)C(F)(F)F)C1(C)C	510
COc1cc(OC)nc(NC(=S)NC(=O)COc2ccc(Cl)cc2Cl)n1	1890
Cc1cc(C)nc(NC(=S)NC(=O)c2ccc(Cl)cc2F)n1	1360
Cc1cc(C)nc(NC(=S)NC(=O)c2ccccc2)n1	2100
COc1cc(Cl)nc(NC(=S)NC(=O)c2ccc(Cl)cc2F)n1	5100
O=C(NC(=S)Nc1nc(Cl)cc(Cl)n1)c1ccc(-c2ccc([N+](=O)[O-])cc2)o1	1660
Cc1cc(C)nc(NC(=S)NC(=O)C2C(/C=C(\Cl)C(F)(F)F)C2(C)C)n1 (stereo not given)	580
CCOc1cc(OCC)nc(NC(=S)NC(=O)C(c2ccc(Cl)cc2)C(C)C)n1 (stereo not given)	310
